Results taken from patent publication US7786147B2, “Analogs of choline for neuroprotection and cognitive enhancement in neurodegenerative disorders” (Medical College of Georgia Research Institute., priority 2001, dated 2010).

Experiments:
[1] = test system: differentiated PC-12 cells; experiment: MTT cell viability (neuroprotection) assay after neurotrophic factor withdrawal; type: cell-based; design: neuroprotective action after pretreatment with mecamylamine: dose or concentration left out as unconfirmed; conditions: for potency in neuroprotection relative to choline and its ethyl analogs (in words): effects at lowest dose 0.1 mM not much reduced from 10 mM
Description: Cell Culture: PC12 cells were maintained in 150-cm^2 tissue-culture flasks in Dulbecco's Modified Eagles medium containing 7% horse serum, 7% fetal calf serum, 1% non-essential amino-acids and 1% streptomycin (DMEM). The cells were incubated at 37 C in a 5% CO2-enriched, humidified atmosphere. To attain maximum differentiation, the cells were maintained in DMEM.NGF medium for 7 days, with the medium being changed every 2 or 3 days.
Assay for Cell viability. Cells were dissociated by trituration and plated at 1×10^4 cells per well on poly-L-lysine coated 96 well plates containing DMEM.NGF media. Next, the differentiated cells were incubated with the test drug at different concentrations for the specified period of time. Cell viability (cytotoxicity) was determined using the Cell Titer 96 non-radioactive cell proliferation/cytotoxicity assay kit (Promega), which is based on the cellular conversion of a 3-(4,5-dimethylthiazol-2-yl)-2,5-diphenyltetrazolium bromide (MTT) into a formazan product which can be detected spectrophotometrically. After deprivation of cells from NGF and serum, the medium was aspirated and 15 l of dye solution dissolved in DMEM was added. After an additional 4 hr incubation at 37 C, 100 l of solubilization/stop solution was added and the absorbance of solubilized MTT formazan products was measured at 570 nm.
Differentiated PC-12 cells were deprived of neurotrophic factors for 24 hr to promote cytotoxicity. Cell viability was measured by the MTT assay under control conditions, and in cultures in which a choline analog was introduced into the medium at the time of neurotrophic factor withdrawal. […] Choline and its mono-, di-, and tri-ethyl analogs produced a concentration dependent and intermediate level of neuroprotection improving cell viability by up to 40% of baseline.

[2] = molecular target: 7 nicotinic acetylcholine receptor (Rattus norvegicus, UniProt Q05941); type: binding; conditions: PC-12 cells; FIG. 8
Chain of 7 nicotinic acetylcholine receptor (Q05941 23-502): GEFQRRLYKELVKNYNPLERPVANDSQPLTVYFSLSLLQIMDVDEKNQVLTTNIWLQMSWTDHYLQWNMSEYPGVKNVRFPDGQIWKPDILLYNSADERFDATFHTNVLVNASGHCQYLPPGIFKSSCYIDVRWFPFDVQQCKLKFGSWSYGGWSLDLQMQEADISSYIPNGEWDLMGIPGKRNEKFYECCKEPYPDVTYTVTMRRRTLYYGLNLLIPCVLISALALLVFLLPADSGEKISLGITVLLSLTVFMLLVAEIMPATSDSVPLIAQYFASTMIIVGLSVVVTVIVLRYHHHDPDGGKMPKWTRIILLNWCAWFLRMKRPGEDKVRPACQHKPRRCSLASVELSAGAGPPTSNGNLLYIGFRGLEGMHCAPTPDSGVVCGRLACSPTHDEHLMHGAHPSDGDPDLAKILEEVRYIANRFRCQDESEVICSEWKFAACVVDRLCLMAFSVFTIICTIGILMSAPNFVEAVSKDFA

[3] = test system: differentiated PC-12 cells; experiment: Cytoprotective effect (% Protection) with exposure 24 hours prior to growth factor withdrawal; type: cell-based; conditions: exposure 24 hours prior to removal of NGF and serum; FIGS. 11, 13A and B
Description: The above-described differentiated PC-12 cells were exposed to the indicated concentrations (see FIGS. 13A and B) of the FIG. 12 choline analogs 24 hours prior to growth factor withdrawal (removal of nerve growth factor, and changing from serum-containing to serum-free medium). % Protection values were calculated as the ratio of ELISA-based absorbance values for [protected cells−deprived cells (no analog):control (non-deprived) cells−deprived cells]×100. Each data point in FIG. 13 represents data obtained from two separate assays each performed with 5-8 replicates per point.

CC(=O)OCC[N+]1(C)CCCC1 [acetylpyrrolidinecholine]
potency in neuroprotection relative to choline and its ethyl analogs (in words) [1]: more potent

C[N+](C)(CCO)Cc1ccccc1.[Br-] [benzylcholine]
effect on cell viability (in words) ([1]; PC-12 cells deprived of neurotrophic factors for 24 hr, FIG. 5): did not affect cell viability
displacement of cell surface [125I]-bungarotoxin binding (in words) [2]: failed to significantly interact

CN1CCCC1c1cccnc1 (stereo not drawn) [nicotine]
cytoprotective effect, % Protection concentration-effect curve (in words) [3]: biphasic

C[N+]1(CCO)CCCC1 [pyrrolidinecholine]
neuroprotective action after pretreatment with MLA ([1]; MLA (10 nM) pretreatment, FIGS. 9 and 10): blocked
potency in neuroprotection relative to choline and its ethyl analogs (in words) [1]: more potent
neuroprotective action after pretreatment with mecamylamine ([1]; mecamylamine pretreatment, FIGS. 9 and 10): blocked
affinity for the [125I]-bungarotoxin site relative to choline (in words) [2]: slightly more potent affinity
displacement of cell surface [125I]-bungarotoxin binding (in words) [2]: fully displaced
